Experimental data as given in patent US20090053278A1, “ANTI-MICROBIAL COMPOSITIONS AND DEVICES AND METHODS OF USING THE SAME” (priority 2006, published 2009).
In brackets after ≈: the same amount, converted by molar mass. Where a SMILES comes first, the peptide text is derived from it.

Legend:
[1] = tested on: Staphylococcus epidermididis (RP62A; "Christensen Strain") grown as a biofilm; test: MBEC of biofilm, MBEC device, 24 hour exposure; type: cell-based, Staphylococcus epidermidis; details: S. epidermidis biofilm, 10% MHB in PBS, listed as eCAP sterilized by ethylene oxide
Excerpt: (§1) The procedure provided describes an assay for testing 2 organisms (S. epidermidis and S. aureus) grown as a biofilm against 2 antimicrobial agents (gentamicin and an eCAP peptide) using a 96 well microtitre plate. The procedure will allow one to compare the MIC and MBEC values for each organism against each antimicrobial agent and against each other.
(§2) Microorganisms used were Staphylococcus epidermididis (RP62A; “Christensen Strain”) and Staphylococcus aureus (University of Calgary clinical isolate, strain 2645).
One set of test panels as shown above was prepared for each organism to determine the MIC and MBEC after a 24 hour exposure to each test material. SC wells are sterility controls for each experiment. GC is the growth control for each row. The working solution of gentamicin was 3 μmol/ml and 1 μmol/ml for eCAP. No SEM samples were taken for analysis due to test material shortage. […]
(§3) Recovery of Surviving Biofilm: Rinse plate(s) of 0.9% sterile saline (200 μL per well) were prepared in a sterile 96 well micro titre plate. […] The recovery plates were incubated at 37° C. for 24 hours and read using the plate ready to determine MBEC values.
(§4) Therefore, 10% MHB was used as a diluent instead of TSB. […] The MIC and MBEC values were determined as the dilution immediately before the concentration where growth was first observed, as depicted in Table 9 below.

[2] = tested on: Staphylococcus aureus (University of Calgary clinical isolate, strain 2645) grown as a biofilm; test: MBEC of biofilm, MBEC device, 24 hour exposure; type: cell-based; details: S. aureus biofilm, 10% MHB in PBS
Excerpt: as §1, §2
(§5) One set of test panels as shown above was prepared for each organism to determine the MIC and MBEC after a 24 hour exposure to each test material. SC wells are sterility controls for each experiment. GC is the growth control for each row. The working solution of gentamicin was 3 μmol/ml and 1 μmol/ml for eCAP. No SEM samples were taken for analysis due to test material shortage.
(§6) A working solution of eCAP or Gentamicin (1 μMoles/mL and 3 μMoles/mL respectively) was made in 10% MHB in sterile PBS. 200 μl of 10% MHB was added to ‘column’ 12 to serve as sterility controls (SC) and growth controls (GC) for each organism. 100 μl of 10% MHB was added to ‘columns’ 2 to 11. 200 μl of the appropriate working solution was added to ‘column’ 1 of the microtitre plate. 100 μl of the appropriate working solution was added to ‘column’ 2 and ‘column’ 3 of the microtitre plate. Using the multichannel micropipette, the contents of ‘column’ 3 was mixed by pipetting up and down. After mixing, 100 μl was transferred from the wells in ‘column’ 3 to the corresponding wells in ‘column’ 4. This was repeated until reaching ‘column’ 1. Using a pipet, 100 μl from each well in ‘column’ 11 was ejected. 100 μl of growth media was then added to all wells except A1 to H1, A2 to H2, and A12 to H12.
Antimicrobial Challenge of Biofilm: Rinse plate(s) of saline (200 μL per well) were prepared. Planktonic cells from biofilm that had formed on the lid of the MBEC device were rinsed by dipping the lid into the saline for 1-2 minutes. The lid was transferred to the challenge plate and incubated at 37° C. for 24 hours on a gyrating platform set at approximately 150 rpm.
as §3, with “plate. Pegs were rinsed in 0.9% sterile saline for 1 to 2 minutes.” for “plate.”
as §4

[3] = tested on: Staphylococcus epidermididis (RP62A; "Christensen Strain"); test: Planktonic MIC, MBEC device, 24 hour exposure; type: cell-based, Staphylococcus epidermidis; details: S. epidermidis, 10% MHB in PBS
Excerpt: as §1, §2, §5
as §6, with “This was repeated until reaching ‘column’ 1. Using a pipet, 100 μl from each well in ‘column’ 11 was ejected. 100 μl of growth media was then added to all wells except A1 to H1, A2 to H2, and A12 to H12.” left out
Determination of Planktonic MIC: The challenge plate was incubated at 37° C. for 24 hours and read using a plate reader to determine MIC values. The MIC (minimum inhibitory concentration) was determined for compound eCAP/gentamicin for each organism shed from the biofilm during the challenge incubation. […]
as §4

Enterococcis faecalis = test: in-vitro assay of peptide-coated plastic endodontic obturators; type: cell-based; details: peptide immobilized on plastic obturators; data not shown
Excerpt: Medical standard plastic endodontic obturators were coated with an antimicrobial peptide. […] The obturators were coated with a tie layer. A parylene coating containing a reactive molecule specific for the N-terminus region of the peptide (“Photopolymer”) was then applied over the tie layer. The peptide WLBU-2 (SEQ ID NO. 179) was applied to the parylene coating and exposed to UV light to facilitate covalent bonding of the peptide with the parylene coating. Non-coated obturators were used as controls. All samples and controls were subjected to ethylene oxide sterilization. The coated samples were placed in 75% relative humidity overnight.

[4] = antimicrobial activity retained after sterilization
Excerpt: In a useful embodiment of the present invention, the antimicrobial peptides may retain antibacterial activity after a device coated with the antimicrobial peptide is sterilized.

[5] = listed as eCAP sterilized by ethylene oxide

For CC(C)[C@H](NC(=O)[C@H](Cc1c[nH]c2ccccc12)NC(=O)[C@H](CCCNC(=N)N)NC(=O)[C@H](CCCNC(=N)N)NC(=O)[C@@H](NC(=O)[C@@H](NC(=O)[C@H](CCCNC(=N)N)NC(=O)[C@@H](NC(=O)[C@@H](NC(=O)[C@H](CCCNC(=N)N)NC(=O)[C@H](CCCNC(=N)N)NC(=O)[C@H](Cc1c[nH]c2ccccc12)NC(=O)[C@@H](NC(=O)[C@H](CCCNC(=N)N)NC(=O)[C@H](CCCNC(=N)N)NC(=O)[C@@H](NC(=O)[C@H](CCCNC(=N)N)NC(=O)[C@H](CCCNC(=N)N)NC(=O)[C@@H](NC(=O)[C@H](Cc1c[nH]c2ccccc12)NC(=O)[C@H](CCCNC(=N)N)NC(=O)[C@@H](N)CCCNC(=N)N)C(C)C)C(C)C)C(C)C)C(C)C)C(C)C)C(C)C)C(C)C)C(=O)N[C@@H](CCCNC(=N)N)C(=O)N[C@@H](CCCNC(=N)N)C(=O)O [Ethylene oxide eCAP] (H-RRWVRRVRRVWRRVVRVVRRWVRR-OH; N-terminus and C-terminus assumed), the MBEC [1] was 0.0078 µmol/mL, the MBEC [2, 5] was “approximately 0.0039 μmol/ml” and the MIC [3, 5] was 3.9 µM (≈ 13.3 µg/mL).

In the case of CC(C)[C@H](NC(=O)[C@H](Cc1c[nH]c2ccccc12)NC(=O)[C@H](CCCNC(=N)N)NC(=O)[C@H](CCCNC(=N)N)NC(=O)[C@@H](NC(=O)[C@@H](NC(=O)[C@H](CCCNC(=N)N)NC(=O)[C@@H](NC(=O)[C@@H](NC(=O)[C@H](CCCNC(=N)N)NC(=O)[C@H](CCCNC(=N)N)NC(=O)[C@H](Cc1c[nH]c2ccccc12)NC(=O)[C@@H](NC(=O)[C@H](CCCNC(=N)N)NC(=O)[C@H](CCCNC(=N)N)NC(=O)[C@@H](NC(=O)[C@H](CCCNC(=N)N)NC(=O)[C@H](CCCNC(=N)N)NC(=O)[C@@H](NC(=O)[C@H](Cc1c[nH]c2ccccc12)NC(=O)[C@H](CCCNC(=N)N)NC(=O)[C@@H](N)CCCNC(=N)N)C(C)C)C(C)C)C(C)C)C(C)C)C(C)C)C(C)C)C(C)C)C(=O)N[C@@H](CCCNC(=N)N)C(=O)N[C@@H](CCCNC(=N)N)C(=O)O [High dose Irradiated eCAP] (H-RRWVRRVRRVWRRVVRVVRRWVRR-OH; N-terminus and C-terminus assumed), the MBEC ([2]; listed as eCAP sterilized by high dose irradiation) is reported as “approximately 0.016 μmol/ml”.

For CC(C)[C@H](NC(=O)[C@H](Cc1c[nH]c2ccccc12)NC(=O)[C@H](CCCNC(=N)N)NC(=O)[C@H](CCCNC(=N)N)NC(=O)[C@@H](NC(=O)[C@@H](NC(=O)[C@H](CCCNC(=N)N)NC(=O)[C@@H](NC(=O)[C@@H](NC(=O)[C@H](CCCNC(=N)N)NC(=O)[C@H](CCCNC(=N)N)NC(=O)[C@H](Cc1c[nH]c2ccccc12)NC(=O)[C@@H](NC(=O)[C@H](CCCNC(=N)N)NC(=O)[C@H](CCCNC(=N)N)NC(=O)[C@@H](NC(=O)[C@H](CCCNC(=N)N)NC(=O)[C@H](CCCNC(=N)N)NC(=O)[C@@H](NC(=O)[C@H](Cc1c[nH]c2ccccc12)NC(=O)[C@H](CCCNC(=N)N)NC(=O)[C@@H](N)CCCNC(=N)N)C(C)C)C(C)C)C(C)C)C(C)C)C(C)C)C(C)C)C(C)C)C(=O)N[C@@H](CCCNC(=N)N)C(=O)N[C@@H](CCCNC(=N)N)C(=O)O [Low dose irradiated eCAP] (H-RRWVRRVRRVWRRVVRVVRRWVRR-OH; N-terminus and C-terminus assumed), the MBEC ([2]; listed as eCAP sterilized by low dose irradiation) was “approximately 0.063 μmol/ml”.

With CC(C)[C@H](NC(=O)[C@H](Cc1c[nH]c2ccccc12)NC(=O)[C@H](CCCNC(=N)N)NC(=O)[C@H](CCCNC(=N)N)NC(=O)[C@@H](NC(=O)[C@@H](NC(=O)[C@H](CCCNC(=N)N)NC(=O)[C@@H](NC(=O)[C@@H](NC(=O)[C@H](CCCNC(=N)N)NC(=O)[C@H](CCCNC(=N)N)NC(=O)[C@H](Cc1c[nH]c2ccccc12)NC(=O)[C@@H](NC(=O)[C@H](CCCNC(=N)N)NC(=O)[C@H](CCCNC(=N)N)NC(=O)[C@@H](NC(=O)[C@H](CCCNC(=N)N)NC(=O)[C@H](CCCNC(=N)N)NC(=O)[C@@H](NC(=O)[C@H](Cc1c[nH]c2ccccc12)NC(=O)[C@H](CCCNC(=N)N)NC(=O)[C@@H](N)CCCNC(=N)N)C(C)C)C(C)C)C(C)C)C(C)C)C(C)C)C(C)C)C(C)C)C(=O)N[C@@H](CCCNC(=N)N)C(=O)N[C@@H](CCCNC(=N)N)C(=O)O [WLBU-2, RRWVRRVRRVWRRVVRVVRRWVRR] (H-RRWVRRVRRVWRRVVRVVRRWVRR-OH; N-terminus and C-terminus assumed) the “efficacy against Enterococcis faecalis of immobilized peptide” value (Enterococcis faecalis) was “efficacy against Enterococcis faecalis”, the MIC ([3]; listed as eCAP) was 3.9 µM (≈ 13.3 µg/mL) and the “effect of sterilization methods on antimicrobial activity” value ([4]; high and low dose gamma radiated and ethylene oxide, MIC/MBEC against S. aureus and S. epidermidis) was “not detrimental to its antimicrobial activity”. For the same compound, the “antimicrobial activity after ethylene oxide sterilization” value ([4]; peptide coated on a substrate) was “retained antimicrobial activity”.

Compound Gentamicin [reference compound] has an MBEC [2] of 1.5 µmol/mL and an MIC [3] of 1500 µM.
